# Where no end group is shown, it is not given here.
# Target: T1, RNase A (Bos taurus, UniProt P61823)
# T1 sequence (P61823 27-150): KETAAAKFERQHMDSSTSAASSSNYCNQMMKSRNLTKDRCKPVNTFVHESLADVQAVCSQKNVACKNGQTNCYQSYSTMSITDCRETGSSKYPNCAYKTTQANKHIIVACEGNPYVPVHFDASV
# Assay: cCMP hydrolysis assay of RNase A inhibition (absorbance 286 nm)
# Format: biochemical, bovine
# Parameters: Ribonuclease A (Type II-A) from bovine pancreas; purchased Sigma-Aldrich Korea; host or cells: bovine pancreas
# Details: inhibitor 0.1 nM to 1 μM, linear regression
# Method: The analysis of RNase A activity inhibition based on 2′,3′-cyclic CMP (cCMP) was performed by measuring the absorbance of cCMP at a wavelength of 286 nm. A mixture was prepared by combining Tris-acetate buffer (500 mM, pH=6.5, 200 μL), EDTA (5 mM, 200 μL), 2′,3′-cCMP (10 mM, 100 μL), RNase A (10 μg/mL, 100 μL), Fv variant (or synthetic peptides in the concentration range of 0.1 nM-1 μM), and DW (filled up to 1000 μL). The absorbance at 286 nm was measured using a Lamda35 UV-VIS spectrophotometer (Perkin-Elmer, MA, USA). The reaction was initiated by adding RNase A to the mixture, and the absorbance was measured every 3 minutes for a total of 30 minutes.
# RNase A is known to degrade RNA by cleaving the phosphodiester bonds between nucleotides. The cleavage of the phosphodiester bonds occurs through a two-step reaction: (1) the formation of a […] and (2) the subsequent degradation of a 2′,3′-cyclic phosphate intermediate. […] Specifically, it was utilized that the absorbance at 286 nm quantitatively increases as 3′-CMP increases due to the hydrolysis of cCMP, as shown in FIG. 13. […] The inhibition curves of the Fv antibodies were plotted linearly, and the IC50 values were calculated by linear regression, as shown in FIG. 15. […]
# The analysis of RNase A activity inhibition based on 2′,3′-cyclic CMP (cCMP) was performed by measuring the absorbance of cCMP at a wavelength of 286 nm. […] The absorbance at 286 nm was measured using a Lamda35 UV-VIS spectrophotometer (Perkin-Elmer, MA, USA). The reaction was initiated by adding RNase A to the mixture, and the absorbance was measured every 3 minutes for a total of 30 minutes.
# RNase A is known to degrade RNA by cleaving the phosphodiester bonds between nucleotides. […] Specifically, it was utilized that the absorbance at 286 nm quantitatively increases as 3′-CMP increases due to the hydrolysis of cCMP, as shown in FIG. 13. […] The inhibition curves of the Fv antibodies were plotted linearly, and the IC50 values were calculated by linear regression, as shown in FIG. 15.
row,IC50,Sequence
1,0.607 µM,CGPDSDVMTDF [Peptide-1]
2,0.356 µM,DGTAKKSRKDD [Peptide-3]

row,Sequence,IC50
1,YGPVGRVKRDD [Peptide-2],0.373 µM

# Source: patent publication US20260217863A1, “ANTIBODY OR PEPTIDE BINDING SPECIFICALLY TO RNASE A, IMMUNOASSAY DEVICE AND METHOD FOR DETECTING RNASE A, AND METHOD FOR COLLECTING RNASE A” (UIF (University Industry Foundation), Yonsei University, priority 2022, published 2026)
